Type in all cases: cell-based, mouse
Assay [1] has as its system RAW 264.7 cells. Put plainly: Gene expression analysis (qPCR) of M1 cytokines and Inos. To be noted: for effect on nab-paclitaxel-dependent M1 cytokine expression: co-treatment with nab-paclitaxel. As to the method:
Cell lines and cell culture treatments. All cells were maintained under 5% CO2 at 37° C. and cultured in DMEM (Gibco) supplemented with 10% FBS (Gibco), penicillin and streptomycin (Gibco), and 25 mmol/L HEPES (Gibco). Mouse RAW 264.7 cells were obtained from the American Type Culture Collection (2014, ATCC TIB-71). Mouse KPC cells were a kind gift from Dr. R. H. Vonderheide (2013) and generated as previously described (Lo et al., “Tumor-Promoting Desmoplasia Is Disrupted by Depleting FAP-Expressing Stromal Cells,” Cancer Res. 75:2800-10 (2015), which is hereby incorporated by reference in its entirety). Cell lines were not authenticated and were tested for mycoplasma contamination every 3 months by DAPI stain of cells grown for 1 week in the absence of antibiotics. KPC and RAW 264.7 were propagated for 2 to 3 passages (approximately 1 week) prior to use in all experiments and were kept in culture for no longer than 1 month. Recombinant mouse interferon gamma IFNγ was purchased from R&D Systems (CN 485 MI/CF), LPS (L2630), and paclitaxel (T7402) were purchased from Sigma-Aldrich, CLI-095 was purchased from Invivogen (TLRL-CLI95), BAPTA-AM was purchased from Life Technologies (B6769), and 5-(N-ethyl-N-isopropyl) amiloride (EIPA) was purchased from Invitrogen Molecular Probes (e-3111). Reagents were used at concentrations of 5 ng/mL (IFNγ), 20 ng/mL (LPS), […] (paclitaxel), 500 nmol/L (CLI-095), […] (BAPTA-AM), and […] (EIPA) unless indicated otherwise. Tetramethylrhodamine (TMR)-labeled dextran was purchased from Invitrogen (D1822). Nab-paclitaxel (Abraxane; Abraxis BioScience) pharmaceutical grade powder was purchased through the NYU Langone Medical Center pharmacy and used at a concentration of […] for in vitro experiments.
Gene expression analysis. For in vitro qPCR analysis, total RNAwas harvested 2 hours (IL1α, IL1β, IL6, TNFα, and iNOS) or 8 hours (IL12β) after cell culture treatments, using the QIAGEN RNA extraction Kit (QIAGEN). For in vivo gene expression analysis, the CD45 F4/80 double-positive population was sorted directly into TRIzol LS Reagent (Thermo-FisherScientific; CN 10296) from dissociated orthotopic tumors 48 hours after treatment, and total RNA was purified according to the manufacturer's protocol. Purified RNA ([…]) was reverse-transcribed using the QuantiTect Reverse Transcription Kit (QIAGEN), and 1 of 10 of cDNA mixture (in vitro experiments) or 1 of 3 of cDNA mixture (in vivo experiments) was used for qPCR reaction. Primers were obtained from Integrated DNA Technologies (IDT) with the following sequences (5′-3′): Il1α (Forward) […] (SEQ ID NO: 2), (Reverse) […] (SEQ ID NO: 3); Il1β (Forward) […] (SEQ ID NO: 4), (Reverse) […] (SEQ ID NO: 5); Il6 (Forward) […]-[…] (SEQ ID NO: 6), (Reverse) […] (SEQ ID NO: 7); Inos (Forward) […] (SEQ ID NO: 8), (Reverse) […] (SEQ ID NO: 9); Tnfα (Forward) […] (SEQ ID NO: 10), (Reverse) […] (SEQ ID NO: 11); Il12b (IIl12 p40) (Forward) […] (SEQ ID NO: 12), (Reverse) […]-[…] (SEQ ID NO: 13); Gapdh (Forward) […] (SEQ ID NO: 14), (Reverse) […] (SEQ ID NO: 15); Rps29 […] (SEQ ID NO: 16) (Forward), […]-GCGTACT (SEQ ID NO: 17) (Reverse).

The test system of assay [2] is RAW 264.7 cells. Put plainly: Western blot analysis of M1 cytokine and iNOS protein expression. The method, then:
(§1) Cell lines and cell culture treatments. All cells were maintained under 5% CO2 at 37° C. and cultured in DMEM (Gibco) supplemented with 10% FBS (Gibco), penicillin and streptomycin (Gibco), and 25 mmol/L HEPES (Gibco). Mouse RAW 264.7 cells were obtained from the American Type Culture Collection (2014, ATCC TIB-71). Mouse KPC cells were a kind gift from Dr. R. H. Vonderheide (2013) and generated as previously described (Lo et al., “Tumor-Promoting Desmoplasia Is Disrupted by Depleting FAP-Expressing Stromal Cells,” Cancer Res. 75:2800-10 (2015), which is hereby incorporated by reference in its entirety). Cell lines were not authenticated and were tested for mycoplasma contamination every 3 months by DAPI stain of cells grown for 1 week in the absence of antibiotics. KPC and RAW 264.7 were propagated for 2 to 3 passages (approximately 1 week) prior to use in all experiments and were kept in culture for no longer than 1 month. Recombinant mouse interferon gamma IFNγ was purchased from R&D Systems (CN 485 MI/CF), LPS (L2630), and paclitaxel (T7402) were purchased from Sigma-Aldrich, CLI-095 was purchased from Invivogen (TLRL-CLI95), BAPTA-AM was purchased from Life Technologies (B6769), and 5-(N-ethyl-N-isopropyl) amiloride (EIPA) was purchased from Invitrogen Molecular Probes (e-3111). […]

Assay [3] relates to RAW 264.7 cells. As to the kind of experiment: Macropinocytosis assay: OG-nab-paclitaxel internalization by macrophages. Particulars: 30 minute pretreatment with inhibitor or blocking antibody. The method, then:
as §1

[4] abbreviates: nab-ptx in combination with IFNγ.

With `CC(=O)OCOC(=O)CN(CC(=O)OCOC(C)=O)c1ccccc1OCCOc1ccccc1N(CC(=O)OCOC(C)=O)CC(=O)OCOC(C)=O` [BAPTA-AM], the “effect on nab-paclitaxel-dependent M1 cytokine expression” value in the assay on RAW 264.7 cells [1] is reported as “inhibited”.
With `CCOC(=O)C1=CCCC[C@H]1S(=O)(=O)Nc1ccc(F)cc1Cl` [CLI-095], the “effect on nab-paclitaxel and LPS-dependent iNOS protein expression” value in the assay with RAW 264.7 cells [2] (with IFNγ) is recorded as “abrogated”. Moreover, the “effect on LPS-dependent Il1α, Il1β, Il6, Il12b, and Tnfα gene expression” value in the assay with RAW 264.7 cells [1] (TLR4 inhibitor with LPS) was “abrogated”. For the same compound, the “effect on nab-paclitaxel-dependent Il1α, Il1β, Il6, Il12b, and Tnfα gene expression” value with RAW 264.7 cells [1] (TLR4 inhibitor with nab-ptx) is listed as “abrogated”.
Regarding `CCN(c1nc(N)c(C(=O)N=C(N)N)nc1Cl)C(C)C` [EIPA, 5-(N-ethyl-N-isopropyl) amiloride], the “effect on nab-paclitaxel-driven iNOS protein expression” value in the assay on RAW 264.7 cells [2] (setting [4]) was “partially inhibited”. For the same compound, the “effect on nab-paclitaxel-dependent M1 cytokine expression” value in the assay with RAW 264.7 cells [1] is “inhibited”. Moreover, in the assay on RAW 264.7 cells [1] (setting [4]), the “effect on nab-paclitaxel-driven iNOS gene expression” value is given as “partially inhibited”. In addition, the “effect on OG-nab-paclitaxel internalization” value with RAW 264.7 cells [3] is recorded as “reduced”.

Source of the values: patent US12016881B2, “Methods and reagents for modulating macrophage phenotype” (NEW YORK UNIVERSITY, priority 2016, dated 2024).
